Common to all, as to assay type: cell-based, rat
One assay deals with caspase 3. As to the kind of experiment: Caspase 3 activity monitoring in cardiac myoblasts. The note with it: ApoO+ cells incubated with palmitate, with or without added agent, FIG. 5A, 5L, 6E, 6F. Here is the method:
Palmitate preparation and caspase 3 activity measurement were performed as previously described (Hickson-Bick, Buja et al. 2000; Hirota, Otabe et al. 2006).

The subject of the next assay is AMPK. The experiment in a line: Western blot analysis of AMPK phosphorylation. The note with it: ApoO+ cardiac myoblasts, with or without palmitate; FIG. 6G. (Immunoblotting shows a protein as a band on a membrane.)
In assay [1] the test system is H9c2 cardiac myoblasts. The experiment in a line: Oxygen flow measurement (cell respiration). The note with it: ApoO+ H9c2 cardiac myoblasts; CCCP 4 to 16 μM cumulative doses; FIG. 8A.
For assay [2], the system named is H9c2 cardiac myoblasts. As to the kind of experiment: Transmission electron microscopy of palmitate treated cells. The note with it: H9c2 (control) cardiac myoblasts treated with palmitate; not shown.
For assay [3], the system named is long fatty acyl CoA synthetase. The experiment in a line: Palmitoyl-coA synthase activity in H9c2 cardiac myoblasts. The note with it: control and ApoO+ H9c2 cardiac myoblasts; FIG. 7H.

On to `NC(=O)c1ncn([C@@H]2O[C@H](CO)[C@@H](O)[C@H]2O)c1N` [AICAR, 5-Aminoimidazole-4-carboxyamide ribonucleoside], for which the “caspase 3 activity” value with caspase 3 is listed as “significantly reduced”. Moreover, the AMPK phosphorylation entry with AMPK is given as “increased AMPK phosphorylation”.

For `N#CC(C#N)=NNc1cccc(Cl)c1` [CCCP, Carbonyl cyanide m-chlorophenyl hydrazone], the oxygen consumption result in the assay on H9c2 cardiac myoblasts [1] is “further increased”. `CCCC[C@@H](C)[C@@H](OC(=O)C[C@@H](CC(=O)O)C(=O)O)[C@H](C[C@@H](C)C[C@H](O)CCCC[C@@H](O)C[C@H](O)[C@H](C)N)OC(=O)C[C@@H](CC(=O)O)C(=O)O` [Fumonisin B1]: the “caspase 3 activity” value in the assay on caspase 3 is “lowered caspase 3 activity”; in the assay on caspase 3 (listed as fumonisine B) it was “partially attenuated”. Take `O=c1cc(N2CCOCC2)oc2c(-c3ccccc3)cccc12` [LY294002]: the “caspase 3 activity” value in the assay on caspase 3 is recorded as “no significant effect”.

Regarding `CCCCCCCCCCCCCCCC(=O)O` [palmitate], the “mitochondrial alteration by transmission electron microscopy” value with H9c2 cardiac myoblasts [2] is reported as “no significant effect”. On to `CCC/C=C/C/C=C/C=C/C=N/NN=O` [triacsin C], for which, in assay [3], the palmitoyl-coA activity entry is on record as “inhibited”.

For the origin of these results see patent US20150368715A1, “DIAGNOSTIC AND TREATMENT OF CHRONIC HEART FAILURE” (Institut National de la Sante et de la Recherche Medicale …, priority 2010, published 2015).
